Assay results: article PMC10732257 (Oncotarget, 2023)

Experiments:
Cdc7/cyclinB1 = molecular target: T1, Cdc7/cyclinB1 (Homo sapiens, UniProt O00311); assay: CDK family off-target kinase activity (Eurofins); format: biochemical
T1 construct: purchased Eurofins Pharma Discovery Services UK Ltd
Procedure: (§1) GFH009 inhibition activity against the CDK9/cyclin T1 complex as well as off-target CDK family reactivity were assayed by Eurofins Pharma Discovery Services UK Ltd., (Dundee, UK). Determination of off-target inhibition of other kinases was conducted by DiscoverX LeadHunter Discovery Services (Freemont, CA, USA.) GFH009 reactivity to GPCR family members was assayed by Wuxi AppTech (Shanghai, China).
(§2) The pharmacodynamic and mechanistic foundation for the
(§3) CDK9 inhibitor for the treatment of hematologic malignancies
(§4) Supplementary Table 1: Inhibitory action of GFH009 on other CDK family members
(§5) Various CDK/ Remaining enzymatic activity (%) after
(§6) cognate cyclin pairs tested exposure to GFH009 at a concentration of Selectivity vs. CDK9
(§7) (also on this page, place not known: www.oncotarget.com Oncotarget, Materials Supplementary)
(§8) (1 picture or pasted object on this page, not shown here)

CDK3/cyclin E = molecular target: T2, CDK3/cyclin E (Homo sapiens, UniProt Q00526); assay: CDK family off-target kinase activity (Eurofins); format: biochemical
T2 construct: purchased Eurofins Pharma Discovery Services UK Ltd
Procedure: as §1, §2, §3, §4, §5, §6, §7, §8

CDK2/cyclin E = molecular target: T3, CDK2/cyclin E (Homo sapiens, UniProt P24941); assay: CDK family off-target kinase activity (Eurofins); format: biochemical
T3 construct: purchased Eurofins Pharma Discovery Services UK Ltd
Procedure: as §1, §2, §3, §4, §5, §6, §7, §8

CDK16/cyclin Y = molecular target: T4, CDK16/cyclin Y (Homo sapiens, UniProt Q00536); assay: CDK family off-target kinase activity (Eurofins); format: biochemical
T4 construct: purchased Eurofins Pharma Discovery Services UK Ltd
Procedure: as §1, §2, §3, §4, §5, §6, §7, §8

CDK6/cyclin D3 = molecular target: T5, CDK6/cyclin D3 (Homo sapiens, UniProt Q00534); assay: CDK family off-target kinase activity (Eurofins); format: biochemical
T5 construct: purchased Eurofins Pharma Discovery Services UK Ltd
Procedure: as §1, §2, §3, §4, §5, §6, §7, §8

CDK1/cyclin B = molecular target: T6, CDK1/cyclin B (Homo sapiens, UniProt P06493); assay: CDK family off-target kinase activity (Eurofins); format: biochemical
T6 construct: purchased Eurofins Pharma Discovery Services UK Ltd
Procedure: as §1, §2, §3, §4, §5, §6, §7, §8

CDK12/cyclin K = molecular target: T7, CDK12/cyclin K (Homo sapiens, UniProt Q9NYV4); assay: CDK family off-target kinase activity (Eurofins); format: biochemical
T7 construct: purchased Eurofins Pharma Discovery Services UK Ltd
Procedure: as §1, §2, §3, §4, §5, §6, §7, §8

CDK9/cyclin T1(h) = CDK9/cyclin T1(h) (Homo sapiens, UniProt P50750); details: read-out: IC50 of inhibition of the CDK9/Cyclin T1 complex; radiometric kinase activity
Procedure: Figure 2 Effect of GFH009 on CDK9 enzymatic activity. IC50 of GFH009 inhibition activity against the CDK9/cyclin T1 complex was determined with Eurofin KinaseProfiler radiometric protein kinase activity.
as §1

T7 sequence (Q9NYV4 whole entry): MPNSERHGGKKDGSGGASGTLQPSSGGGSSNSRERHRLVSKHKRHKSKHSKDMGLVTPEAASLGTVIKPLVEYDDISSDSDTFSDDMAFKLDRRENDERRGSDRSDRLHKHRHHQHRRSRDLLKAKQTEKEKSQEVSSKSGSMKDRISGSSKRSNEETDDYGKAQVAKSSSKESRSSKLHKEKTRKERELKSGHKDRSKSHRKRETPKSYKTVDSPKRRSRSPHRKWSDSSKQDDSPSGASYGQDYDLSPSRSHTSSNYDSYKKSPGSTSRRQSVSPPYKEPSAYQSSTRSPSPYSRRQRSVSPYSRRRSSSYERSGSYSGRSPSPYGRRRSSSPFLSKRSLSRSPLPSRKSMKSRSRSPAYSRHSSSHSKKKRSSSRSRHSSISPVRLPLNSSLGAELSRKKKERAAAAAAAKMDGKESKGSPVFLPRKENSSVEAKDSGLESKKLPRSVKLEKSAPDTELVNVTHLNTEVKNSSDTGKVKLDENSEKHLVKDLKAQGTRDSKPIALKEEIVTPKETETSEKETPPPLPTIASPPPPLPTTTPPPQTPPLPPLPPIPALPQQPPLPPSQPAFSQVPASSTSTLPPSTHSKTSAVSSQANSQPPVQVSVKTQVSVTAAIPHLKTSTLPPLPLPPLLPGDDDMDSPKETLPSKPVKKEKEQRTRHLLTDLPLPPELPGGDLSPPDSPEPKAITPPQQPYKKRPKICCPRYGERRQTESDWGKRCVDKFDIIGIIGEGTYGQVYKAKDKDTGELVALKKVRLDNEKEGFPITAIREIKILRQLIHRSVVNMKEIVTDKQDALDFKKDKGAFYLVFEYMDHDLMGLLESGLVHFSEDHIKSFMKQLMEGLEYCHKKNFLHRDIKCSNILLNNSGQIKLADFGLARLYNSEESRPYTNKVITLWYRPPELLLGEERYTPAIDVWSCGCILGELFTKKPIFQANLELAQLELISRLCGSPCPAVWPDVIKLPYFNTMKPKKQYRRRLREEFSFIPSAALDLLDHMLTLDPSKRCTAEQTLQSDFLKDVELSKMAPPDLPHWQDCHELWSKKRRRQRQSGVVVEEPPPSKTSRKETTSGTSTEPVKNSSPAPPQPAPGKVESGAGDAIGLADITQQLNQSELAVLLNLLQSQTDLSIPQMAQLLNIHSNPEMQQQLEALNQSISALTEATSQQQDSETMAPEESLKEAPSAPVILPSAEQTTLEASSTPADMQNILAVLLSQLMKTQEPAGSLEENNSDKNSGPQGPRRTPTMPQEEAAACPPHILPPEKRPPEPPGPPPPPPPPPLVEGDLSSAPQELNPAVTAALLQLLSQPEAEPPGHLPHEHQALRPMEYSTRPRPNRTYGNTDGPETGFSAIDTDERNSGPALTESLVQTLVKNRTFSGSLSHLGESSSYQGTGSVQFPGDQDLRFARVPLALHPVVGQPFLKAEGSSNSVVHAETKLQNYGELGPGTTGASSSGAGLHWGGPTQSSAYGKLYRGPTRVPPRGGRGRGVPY
T7 sequence (O75909 whole entry partner): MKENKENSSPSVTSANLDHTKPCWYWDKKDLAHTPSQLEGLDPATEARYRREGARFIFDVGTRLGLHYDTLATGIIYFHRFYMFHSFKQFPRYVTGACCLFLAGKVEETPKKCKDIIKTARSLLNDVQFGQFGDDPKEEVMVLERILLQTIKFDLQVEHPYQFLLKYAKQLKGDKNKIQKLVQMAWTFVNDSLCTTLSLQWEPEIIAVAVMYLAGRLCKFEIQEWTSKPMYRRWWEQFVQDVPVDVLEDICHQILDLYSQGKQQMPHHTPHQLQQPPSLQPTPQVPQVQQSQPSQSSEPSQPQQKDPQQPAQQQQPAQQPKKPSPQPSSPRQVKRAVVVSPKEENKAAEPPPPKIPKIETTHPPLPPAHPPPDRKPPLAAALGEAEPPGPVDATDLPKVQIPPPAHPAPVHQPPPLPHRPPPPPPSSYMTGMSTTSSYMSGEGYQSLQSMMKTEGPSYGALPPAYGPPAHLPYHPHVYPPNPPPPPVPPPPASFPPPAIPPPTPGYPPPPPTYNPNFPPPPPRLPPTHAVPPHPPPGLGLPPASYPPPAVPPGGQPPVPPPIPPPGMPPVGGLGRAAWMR
T1 sequence (O00311 whole entry): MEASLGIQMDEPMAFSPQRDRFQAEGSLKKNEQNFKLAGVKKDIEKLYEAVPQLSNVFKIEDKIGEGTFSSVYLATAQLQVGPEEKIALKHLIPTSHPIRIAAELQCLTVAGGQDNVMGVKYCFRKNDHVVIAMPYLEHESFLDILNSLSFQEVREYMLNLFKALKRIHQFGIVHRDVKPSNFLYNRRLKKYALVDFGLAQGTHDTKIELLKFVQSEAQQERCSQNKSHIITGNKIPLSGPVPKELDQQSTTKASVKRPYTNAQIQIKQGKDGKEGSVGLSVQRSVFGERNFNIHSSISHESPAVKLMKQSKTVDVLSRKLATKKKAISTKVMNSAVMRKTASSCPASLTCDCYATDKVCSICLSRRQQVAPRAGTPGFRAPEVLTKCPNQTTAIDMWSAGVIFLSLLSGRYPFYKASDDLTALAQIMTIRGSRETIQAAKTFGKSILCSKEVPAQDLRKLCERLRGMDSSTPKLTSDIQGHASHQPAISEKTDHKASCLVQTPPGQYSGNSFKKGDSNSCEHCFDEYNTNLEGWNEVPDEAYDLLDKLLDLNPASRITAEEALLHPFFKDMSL
T4 sequence (Q00536 whole entry): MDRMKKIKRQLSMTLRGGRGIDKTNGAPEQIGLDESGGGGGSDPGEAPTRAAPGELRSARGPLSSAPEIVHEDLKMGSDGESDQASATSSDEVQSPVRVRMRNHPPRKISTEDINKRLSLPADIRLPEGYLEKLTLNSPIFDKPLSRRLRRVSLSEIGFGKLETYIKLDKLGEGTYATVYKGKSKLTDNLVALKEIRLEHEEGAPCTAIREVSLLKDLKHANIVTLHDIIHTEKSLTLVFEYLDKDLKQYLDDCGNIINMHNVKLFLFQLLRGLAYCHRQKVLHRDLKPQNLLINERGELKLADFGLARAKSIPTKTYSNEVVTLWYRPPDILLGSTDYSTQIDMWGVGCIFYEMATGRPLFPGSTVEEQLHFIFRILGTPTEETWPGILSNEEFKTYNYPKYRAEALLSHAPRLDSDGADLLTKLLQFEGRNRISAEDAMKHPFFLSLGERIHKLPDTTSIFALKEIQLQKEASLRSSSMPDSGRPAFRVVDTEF
T4 sequence (Q8ND76 whole entry partner): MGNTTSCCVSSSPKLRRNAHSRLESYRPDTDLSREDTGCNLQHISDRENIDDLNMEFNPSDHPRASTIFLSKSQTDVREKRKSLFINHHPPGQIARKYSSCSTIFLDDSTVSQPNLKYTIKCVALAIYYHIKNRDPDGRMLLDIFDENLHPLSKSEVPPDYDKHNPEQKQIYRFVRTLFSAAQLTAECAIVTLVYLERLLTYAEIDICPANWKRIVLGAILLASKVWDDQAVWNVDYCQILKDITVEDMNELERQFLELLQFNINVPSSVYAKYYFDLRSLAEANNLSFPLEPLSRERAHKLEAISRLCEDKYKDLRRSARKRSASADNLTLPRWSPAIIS
T5 sequence (Q00534 whole entry): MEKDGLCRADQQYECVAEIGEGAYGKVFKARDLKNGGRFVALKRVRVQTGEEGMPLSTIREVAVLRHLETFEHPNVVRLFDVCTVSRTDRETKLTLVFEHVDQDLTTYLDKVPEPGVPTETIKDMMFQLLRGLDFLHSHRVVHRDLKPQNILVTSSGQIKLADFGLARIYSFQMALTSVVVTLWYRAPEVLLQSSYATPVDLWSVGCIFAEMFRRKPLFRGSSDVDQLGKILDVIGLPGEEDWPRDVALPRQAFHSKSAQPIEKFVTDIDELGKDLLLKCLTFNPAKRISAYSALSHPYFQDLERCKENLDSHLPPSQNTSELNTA
T5 sequence (P30281 whole entry partner): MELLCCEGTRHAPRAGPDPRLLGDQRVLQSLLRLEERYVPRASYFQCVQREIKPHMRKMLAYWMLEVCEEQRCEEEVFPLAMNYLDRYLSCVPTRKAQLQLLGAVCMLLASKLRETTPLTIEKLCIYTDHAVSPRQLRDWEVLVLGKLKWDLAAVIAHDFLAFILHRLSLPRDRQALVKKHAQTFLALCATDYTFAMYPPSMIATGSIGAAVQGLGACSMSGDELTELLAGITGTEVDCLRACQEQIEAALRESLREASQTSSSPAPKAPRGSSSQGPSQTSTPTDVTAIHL
T6 sequence (P06493 whole entry): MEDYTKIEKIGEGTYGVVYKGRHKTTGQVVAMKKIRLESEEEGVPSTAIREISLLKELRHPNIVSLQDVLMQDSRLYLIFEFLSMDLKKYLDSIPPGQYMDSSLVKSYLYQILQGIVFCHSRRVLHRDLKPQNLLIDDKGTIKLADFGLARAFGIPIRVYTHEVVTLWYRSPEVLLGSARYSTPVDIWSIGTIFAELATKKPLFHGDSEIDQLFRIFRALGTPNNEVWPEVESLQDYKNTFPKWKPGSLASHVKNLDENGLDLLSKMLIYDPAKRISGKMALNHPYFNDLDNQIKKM
T6 sequence (P14635 whole entry partner): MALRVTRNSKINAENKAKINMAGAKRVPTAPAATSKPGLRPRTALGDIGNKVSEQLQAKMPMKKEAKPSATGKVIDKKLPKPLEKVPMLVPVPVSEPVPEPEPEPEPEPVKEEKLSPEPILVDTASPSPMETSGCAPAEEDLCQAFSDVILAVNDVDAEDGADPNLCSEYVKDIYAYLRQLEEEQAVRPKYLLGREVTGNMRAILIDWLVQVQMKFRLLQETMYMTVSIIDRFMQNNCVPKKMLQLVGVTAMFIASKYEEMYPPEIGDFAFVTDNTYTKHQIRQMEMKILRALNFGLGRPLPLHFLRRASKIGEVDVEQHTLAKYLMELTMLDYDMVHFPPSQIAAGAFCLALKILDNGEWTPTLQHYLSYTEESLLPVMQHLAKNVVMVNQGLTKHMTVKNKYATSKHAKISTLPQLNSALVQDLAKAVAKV

For COC[C@@H](C)NC1CCC(Nc2cc(-c3csc(NCC4(C#N)CCOCC4)n3)c(Cl)cn2)CC1 (stereo partly shown) [GFH009], the “Selectivity vs. CDK9” value (Cdc7/cyclinB1) was greater than 100, the “Remaining enzymatic activity (%) after exposure to GFH009” value (“Remaining enzymatic activity (%)” below) (Cdc7/cyclinB1; 1 µM) was 75% and the “Remaining enzymatic activity (%)” value (Cdc7/cyclinB1; 10 µM) was 47%. The “Selectivity vs. CDK9” value (CDK3/cyclin E) was greater than 100, the “Remaining enzymatic activity (%)” value (CDK3/cyclin E; 1 µM) was 74% and the “Remaining enzymatic activity (%)” value (CDK3/cyclin E; 10 µM) was 39%. The “Selectivity vs. CDK9” value (CDK2/cyclin E) was greater than 100, the “Remaining enzymatic activity (%)” value (CDK2/cyclin E; 1 µM) was 63% and the “Remaining enzymatic activity (%)” value (CDK2/cyclin E; 10 µM) was 27%. For the same compound, the “Selectivity vs. CDK9” value (CDK16/cyclin Y) was less than 100, the “Remaining enzymatic activity (%)” value (CDK16/cyclin Y; 1 µM) was 23% and the “Remaining enzymatic activity (%)” value (CDK16/cyclin Y; 10 µM) was 5%. For the same compound, the “Selectivity vs. CDK9” value (CDK6/cyclin D3) was greater than 1000, the “Remaining enzymatic activity (%)” value (CDK6/cyclin D3; 1 µM) was 85% and the “Remaining enzymatic activity (%)” value (CDK6/cyclin D3; 10 µM) was 58%. For the same compound, the “Selectivity vs. CDK9” value (CDK1/cyclin B) was greater than 1000, the “Remaining enzymatic activity (%)” value (CDK1/cyclin B; 1 µM) was 97% and the “Remaining enzymatic activity (%)” value (CDK1/cyclin B; 10 µM) was 50%. For the same compound, the “Selectivity vs. CDK9” value (CDK12/cyclin K) was greater than 1000, the “Remaining enzymatic activity (%)” value (CDK12/cyclin K; 1 µM) was 94% and the “Remaining enzymatic activity (%)” value (CDK12/cyclin K; 10 µM) was 86%. The IC50 (CDK9/cyclin T1(h)) was 9 nM.
